These compounds were tested on TPXT rats (assay: Hypercalcemia induced by the parathyroid hormone (PTH) in a thyroparathyroidectomized (TPXT) rat model). Conditions: doses ranging from twice 1 mg/kg to twice 10 mg/kg by subcutaneous route in the rat, at time 0 and 3 hours; serum Ca at 6 hours.
Format: in vivo
Description: Hypercalcemia induced by the parathyroid hormone (PTH) in a thyroparathyroidectomized (TPXT) rat model
Stimulation of bone resorption is induced in TPXT rats by perfusion of PTH and the variations of bone resorption are monitored by the concentration of calcium in the serum.
Male Sprague Dawley rats weighing 150-200 g are thyroparathyroidectomized. The rats are subjected to a standard diet containing 7 g Ca/kg (UAR) and Volvic water. The effectiveness of the thyroparathyroidectomy is tested by measuring the concentrations of Ca in the serum 8 days after the operation in animals which have been starved since the previous day. The rats are considered as thyroparathyroidectomized when the Ca levels in the serum are less than 80 mg/l. The PTH (1-34) of the rat (Bachem) is dissolved in 0.15M of NaCl Cys.HCl 2% and delivered by osmotic minipumps (ALZET 2001D) at a dose of 200 pmol/kg/h. The minipumps are introduced into the intraperitoneal cavities under anaesthesia (ketamine—75 mg/kg and acepromazine—2.5 mg/kg) of the TPXT rats which have been starved since the previous day. The control TPXT rats receive the minipumps filled with the PTH vehicle.
Either the product to be tested or the vehicle (controls and rats treated with the PTH) are administered twice by sub-cutaneous route (2 ml/kg of body weight) at time 0 and 3 hours after the start of the infusion of PTH. The test is continued for the next 6 hours. At the end of the treatment, all the blood is collected after decapitation. The blood samples are centrifuged at 3000 rpm for 15 minutes (CR422 Jouan) in order to obtain the serum.
The total concentrations of Ca in the serum are measured by colorimetry (Ciba-Corning) using an IEMS Labsystems microplate reading system, at 540 nm.
The difference between the average calcemia values of the treated rats and the control groups is analyzed by variance and by the Dunnett test.
The activity of a product is calculated by the following formula: […]
With `Cc1c(NC[C@H](NC(=O)OCc2ccccc2)C(=O)O)ncnc1N1CCC(c2ccc3c(n2)NCCC3)CC1` [Example 6, 3-[[5-methyl-6-[4-(1,2,3,4-tetrahydro-1,8-naphthyridin-7-yl)-1-piperidinyl]-4-pyrimidinyl]amino]-N-[(phenylmethoxy)carbonyl]alanine, bis(trifluoroacetate)] the “activity against PTH-induced hypercalcemia (total Ca in the serum)” value was “active”. For `CCc1c(NC[C@H](NC(=O)OCc2ccccc2)C(=O)O)ncnc1N1CCC(c2ccc3c(n2)NCCC3)CC1` [Example 9, 3-[[5-ethyl-6-[4-(1,2,3,4-tetrahydro-1,8-naphthyridin-7-yl)-1-piperidinyl]-4-pyrimidinyl]amino]-N-[(phenylmethoxy)carbonyl]alanine, bis(trifluoroacetate)], the “activity against PTH-induced hypercalcemia (total Ca in the serum)” value was “active”. With `CCc1c(NC[C@H](NC(=O)OCc2ccccc2)C(=O)OC(C)C)ncnc1N1CCC(c2ccc3c(n2)NCCC3)CC1` [Example 13, isopropyl 3-[[6-[4-(1,2,3,4-tetrahydro-1,8-naphthyridin-7-yl)-1-piperidinyl]-5-ethyl-4-pyrimidinyl]amino]-N-[(phenylmethoxy)carbonyl]alaninate] the “activity against PTH-induced hypercalcemia (total Ca in the serum)” value was “active”.

These compounds were tested against human αVβ3 receptor (Homo sapiens, UniProt P05106+P06756) (assay: Kistrin/Vitronectin receptor (αVβ3) ELISA test). Conditions: co-incubated 3 hours at ambient temperature, read-out: K/VnR IC50.
human αVβ3 receptor, sequence (P06756 31-889 limits assumed): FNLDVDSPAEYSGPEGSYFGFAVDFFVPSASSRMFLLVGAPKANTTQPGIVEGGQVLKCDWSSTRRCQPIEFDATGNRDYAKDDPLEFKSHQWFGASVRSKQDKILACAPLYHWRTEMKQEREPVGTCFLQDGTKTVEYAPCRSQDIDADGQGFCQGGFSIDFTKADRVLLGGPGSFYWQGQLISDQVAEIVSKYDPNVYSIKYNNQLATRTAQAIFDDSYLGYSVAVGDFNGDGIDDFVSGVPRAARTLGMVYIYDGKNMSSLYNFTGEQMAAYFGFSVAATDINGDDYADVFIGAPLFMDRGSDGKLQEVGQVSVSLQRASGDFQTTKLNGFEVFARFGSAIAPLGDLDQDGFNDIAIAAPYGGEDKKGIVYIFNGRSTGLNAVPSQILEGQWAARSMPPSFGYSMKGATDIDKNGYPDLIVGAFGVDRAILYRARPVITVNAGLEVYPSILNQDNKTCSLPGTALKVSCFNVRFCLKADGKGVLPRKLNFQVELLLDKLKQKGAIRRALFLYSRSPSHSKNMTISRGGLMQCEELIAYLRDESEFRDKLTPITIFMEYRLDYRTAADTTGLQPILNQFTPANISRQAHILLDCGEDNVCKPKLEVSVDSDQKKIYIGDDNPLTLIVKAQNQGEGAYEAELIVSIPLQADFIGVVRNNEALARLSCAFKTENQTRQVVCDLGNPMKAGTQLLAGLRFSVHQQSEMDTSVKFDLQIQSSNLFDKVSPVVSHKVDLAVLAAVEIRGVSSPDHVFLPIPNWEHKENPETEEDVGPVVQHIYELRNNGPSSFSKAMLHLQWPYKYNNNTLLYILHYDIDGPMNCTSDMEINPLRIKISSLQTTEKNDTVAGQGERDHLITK
human αVβ3 receptor, sequence (P06756 891-1048 partner limits assumed): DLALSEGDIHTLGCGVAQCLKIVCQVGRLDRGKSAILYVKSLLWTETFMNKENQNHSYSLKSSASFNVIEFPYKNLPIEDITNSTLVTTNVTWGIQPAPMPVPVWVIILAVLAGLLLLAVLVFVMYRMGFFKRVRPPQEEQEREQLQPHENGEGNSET
human αVβ3 receptor, sequence (P05106 27-788): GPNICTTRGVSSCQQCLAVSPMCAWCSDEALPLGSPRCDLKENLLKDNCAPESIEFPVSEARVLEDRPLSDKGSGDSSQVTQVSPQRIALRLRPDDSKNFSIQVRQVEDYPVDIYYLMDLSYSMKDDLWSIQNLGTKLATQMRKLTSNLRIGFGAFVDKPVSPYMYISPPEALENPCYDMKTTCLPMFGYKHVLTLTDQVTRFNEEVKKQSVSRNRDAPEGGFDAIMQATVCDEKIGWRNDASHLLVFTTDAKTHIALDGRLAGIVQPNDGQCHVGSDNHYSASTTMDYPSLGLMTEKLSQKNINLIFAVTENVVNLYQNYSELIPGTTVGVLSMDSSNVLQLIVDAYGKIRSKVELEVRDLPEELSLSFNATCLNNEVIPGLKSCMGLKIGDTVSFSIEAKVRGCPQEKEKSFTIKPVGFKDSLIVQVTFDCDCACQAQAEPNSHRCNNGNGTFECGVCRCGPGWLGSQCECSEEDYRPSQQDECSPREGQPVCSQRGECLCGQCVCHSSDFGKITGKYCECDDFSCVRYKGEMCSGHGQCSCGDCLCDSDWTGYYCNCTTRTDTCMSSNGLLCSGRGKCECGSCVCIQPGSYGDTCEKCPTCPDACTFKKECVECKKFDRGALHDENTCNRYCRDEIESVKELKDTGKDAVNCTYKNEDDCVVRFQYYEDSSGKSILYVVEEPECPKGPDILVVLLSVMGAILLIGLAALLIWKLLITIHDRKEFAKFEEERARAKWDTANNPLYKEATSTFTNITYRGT
Format: binding
Description: Pharmacological Test: Kistrin/Vitronectin Receptor (αVβ3) ELISA Test
96-well MaxiSorp plates are coated overnight at […] with 100 μl of Kistrin at 1 μg/ml (dilution in coating buffer: 0.05M (carbonate)/NaOH pH 9.6. The next day, the wells are emptied and the ligands (kistrin) are then fixed (fixation buffers: PBS containing 0.5% BSA (pH=7.4)) for 1 hour at ambient temperature under gentle stirring of 125 rpm. The wells are washed six times (washing buffer: PBS containing 0.05% Tween 20 (pH 7.7) then the following is added per well and in this order:
40 μl of incubation buffer
10 μl of the dilution of the product to be tested (the products are diluted in a 50:50 DMSO/water mixture)
50 μl of human αVβ3 receptor (cf Pytella et al. Methods Enzymol. (1987) 144 (Dilution in incubation buffer, adapted according to the batch of receptor and according to the ligand). The ligand, the αVβ3 receptor and the products to be studied are co-incubated for 3 hours at ambient temperature with gentle stirring of 125 rpm.
The wells are again washed six times, then incubated for 2 hours at ambient temperature with gentle stirring of 125 rpm, in the presence of 100 μl of anti-receptor antibody coupled to a peroxidase (The 4B12-HRP antibody is diluted in incubation buffer (50 mM TRIS pH 7.4; 0.5% BSA; 0.05% Tween 20; 1 mM MnCl2; 50 μM CaCl2; 50 μM MgCl2; 100 mM NaCl). The dilution is to be adapted according to the batch of receptor.
The wells are then washed six times before measurement of the ligand-receptor bond is carried out using a peroxidase developer kit (TBM Microwell Peroxidase Substrate System Kirkegaard; Ref cat 50-76-00).
This kit contains a flask A of substrate (3,3′,5,5′-tetramethylebenzidine at 0.4 g/l) and a flask B (0.02% H2O2 in Citrate/Citric acid). Extemporaneously, one volume of A is mixed with one volume of B, then the reaction mixture is distributed at a rate of 100 μl/well.
The enzymatic reaction develops between 6 to 10 minutes for Kistrin/αVβ3 then its development is stopped by the addition of 100 μl of 1M phosphoric acid. The optical density is determined at 450 nm.
Expression of the Results
The following curve is plotted: the bond percentage as a function of the logarithm of each concentration of the tested product. For each product the IC50 is determined according to the following formula: IC50=(B0+Bmin)/2
B0=Maximum bond in the absence of any product
Bmin=Minimum bond in the presence of the highest concentration of the product.
Work on `CCc1c(NCC(NC(=O)OCc2ccccc2)C(=O)O)ncnc1N1CCC(c2ccc3c(n2)NCCC3)CC1` (racemic) [Example 1, 3-[[5-ethyl-6-[4-(1,2,3,4-tetrahydro-1,8-naphthyridin-7-yl)-1-piperidinyl]-4-pyrimidinyl]amino]-N-[(phenylmethoxy)carbonyl]alanine, bis(trifluoroacetate)] yielded an IC50 of 3 nM. With `CCc1c(NCC(NC(=O)OCc2ccccc2)C(=O)O)ncnc1N1CCC(C(=O)N=C2NCCCN2)CC1` (racemic) [Example 2, 3-[[5-ethyl-6-[4-[(1,2,3,4,5,6-hexahydro-2-pyrimidinyl)iminocarbonyl]-1-piperidinyl]-4-pyrimidinyl]amino]-N-[(phenylmethoxy)carbonyl]alanine] the IC50 was 160 nM. `Cc1c(NCC(NC(=O)OCc2ccccc2)C(=O)O)ncnc1N1CCC(c2ccc3c(n2)NCCC3)CC1` (racemic) [Example 3, 3-[[6-[4-(1,2,3,4-tetrahydro-1,8-naphthyridin-7-yl)-1-piperidinyl]-5-methyl-4-pyrimidinyl]amino]-N-[(phenylmethoxy)carbonyl]alanine] gave an IC50 of 3.1 nM. `Cc1c(NCC(NC(=O)OCc2ccccc2)C(=O)O)ncnc1N1CCC(C(=O)N=C2NCCCN2)CC1` (racemic) [Example 4, 3-[[6-[4-[(1,2,3,4,5,6-hexahydro-2-pyrimidinyl)iminocarbonyl]-1-piperidinyl]-5-methyl-4-pyrimidinyl]amino]-N-[(phenylmethoxy)carbonyl]alanine] gave an IC50 of 5.1 nM.

Reference: patent US7763621B2, “Vitronectin receptor antagonist derivatives, method for preparing same, use thereof as medicines and pharmaceutical compositions containing same” (Galapagos SAS, priority 2002, dated 2010)
